Measurements published in patent US20220023279A1, “COMPOSITIONS FOR TREATMENT OF SYMPHYSIOLYSIS” (priority 2018, published 2022).
Where a name gives a salt, the structure may show the parent alone.

How the values were obtained:
[1] = system: patient suffering from symphysiolysis; assay: Example 1: subcutaneous local anesthetic to the inguinal region, pregnant patient with symphysiolysis confined to a wheelchair; assay type: in vivo, human; details: each side of inguinal region
Protocol: A patient weighing about 60 kilograms had previously suffered from a car accident with injury to their left leg, resulting in complex regional pain syndrome. Walking was impaired, and crutches were required for mobility. During pregnancy, they were diagnosed with symphysiolysis and they were confined to a wheelchair as they were unable to ambulate using crutches.
The treatment lasted for one hour. After one hour, additional Bupivacaine HCl was administered, 0.5% of an amount of 5 ml, diluted in 5 ml of saline solution to each side of the inguinal region.
Before and after the administration ultrasound to test fetal pulse was performed to confirm that there was a fetal pulse. The patient was directed to perform fetal monitoring on the day after the administration.

[2] = system: patient suffering from symphysiolysis; assay: Example 3: subcutaneous lidocaine and bupivacaine to the inguinal region, person in 31st week of pregnancy with symphysiolysis; assay type: in vivo, human
From the text: A person, weighing about 60 kilograms, in their 20th week complained of groin pains which spread to their right leg. They had difficulty walking and appeared to be dragging their right leg. Upon examination, no sensitivity in symphysis pubis joint was evident. Sensitivity was noticeable at the right sacroiliac joint. Reducing physical activity was recommended by the physician.
(§1) After about six weeks, the patient returned with noticeable sensitivity at the left sacroiliac joint, and some sensitivity at the right sacroiliac joint. Painkillers and orthopedic stabilization of the hip were recommended. NSAIDs were prescribed to be used until the 31st week. The patient had symptoms of symphysiolysis in the 29th week which were relieved using NSAID therapy (diclofenac sodium).
During the 31st week, the patient felt an increase in symphysiolysis. […] The patient complained of temporary paralysis during walking, difficulty sleeping and difficulty sitting because of pain in the groin and back areas. Subcutaneous anesthesia to the inguinal region was recommended. A fetal ultrasound was performed, and fetal movement and pulse were both satisfactory.
The patient was injected, subcutaneously in the inguinal region with 1% lidocaine.
Two days post lidocaine treatment, the patient felt increased pain, and paresthesia in the legs. […] Twenty minutes after the lidocaine administration, the patient received bupivacaine, 0.5%, in an amount of 5 ml to both sides (not diluted with saline), via subcutaneous administration to the inguinal region. […] The patient reported fatigue.

[3] = system: patient suffering from symphysiolysis; assay: Example 3: NSAID therapy of symphysiolysis symptoms in the 29th week of pregnancy; assay type: in vivo, human
From the text: as §1

[4] = system: patient suffering from symphysiolysis; details: 5 ml lidocaine HCl 1%, subcutaneous, both sides
From the text: They were recommended to perform orthopedic support, physical therapy and to medicate with oral paracetamol and dipyrone for pain management. Bedrest was recommended.
At 35 weeks they felt an increase in the severity of symphysiolysis. They used orthopedic support methods which were not sufficient to relieve the symptoms. They had considered inducing labor and using a walker to enhance mobility.

Structure (SMILES): CCCCN1CCCCC1C(=O)Nc1c(C)cccc1C (centres unmarked) [Bupivacaine HCl]
- additional duration of mobility ([1]; Bupivacaine HCl 0.5%, 5 ml diluted in 5 ml saline, given one hour after lidocaine HCl): nine

Structure (SMILES): CCCCN1CCCCC1C(=O)Nc1c(C)cccc1C (centres unmarked) [Bupivacaine]
- pain level ([2]; five hours after lidocaine, bupivacaine 0.5%, 5 ml both sides, given twenty minutes after lidocaine): further improvement in pain level
- pain, walking and walking speed ([2]; three hours after lidocaine, bupivacaine 0.5%, 5 ml both sides undiluted, subcutaneous, given twenty minutes after lidocaine): significant improvement in walking, decrease in pain, and increase in walking speed
- side effect reported by the patient ([2]; three hours after lidocaine, bupivacaine 0.5%, 5 ml both sides, given twenty minutes after lidocaine): fatigue

Structure (SMILES): CCN(CC)CC(=O)Nc1c(C)cccc1C [Lidocaine]
- pain and walking ([2]; 5 minutes after second treatment, 1 ml lidocaine 1% without saline, subcutaneous, both sides): improvement in walking, but pain still remained
- back pains ([2]; 20 hours after first treatment, 1% lidocaine subcutaneous in inguinal region): back pains returned, but to a lesser extent than before the treatment
- sleeping ([2]; night after first treatment, 1% lidocaine subcutaneous in inguinal region): greatly improved
- pain and walking ([2]; six hours after first treatment, 1% lidocaine subcutaneous in inguinal region): less of an influence of the anesthetic, but still felt that walking was better than before the treatment
- pain and walking ([2]; ten minutes after second treatment, 1 ml lidocaine 1% without saline, subcutaneous, both sides): able to walk without pain and did not feel back pain
- pain and walking ([2]; three hours after first treatment, 1% lidocaine subcutaneous in inguinal region): improvement in pain and in walking but still felt minor freezing of gait

Structure (SMILES): O=C(O)Cc1ccccc1Nc1c(Cl)cccc1Cl [diclofenac sodium]
- symptoms of symphysiolysis under NSAID therapy [3]: relieved

Structure (SMILES): CCN(CC)CC(=O)Nc1c(C)cccc1C [lidocaine HCl]
- patient condition after administration (standing, pain, need of wheelchair) ([1]; lidocaine HCl 1%, 5 ml diluted with 5 ml saline, subcutaneous): able to stand without pain and no longer required a wheelchair
- side effects reported by the patient after the treatment [4]: slight dizziness and occasionally heat rate increases
- ability to climb stairs ([4]; after 30 minutes): able climb stairs without significant pain
- pain in hip joint which had limited walking ([4]; after 30 minutes): significantly reduced
- relief of symphysiolysis symptoms ([4]; after 30 minutes): significant relief
- sharp pain in the left groin area ([4]; after 30 minutes): disappeared
